From ChEMBL document CHEMBL1131562, “Synthesis of L-enantiomers of 4'-thioarabinofuranosyl pyrimidine nucleosides” (1998) come the findings set out here.

Values after ≈ are worked out from the molar mass of the structure shown. Active and inactive are the calls of the source. The calls are words filed in the database; no cut-off is given here.

The species entered for one test is Homo sapiens. As to the kind of experiment: Cytotoxicity against human T-cell leukemia, CCRF-HSB-2, at concentration up to 100 ug/mL; NA means not active. The format is functional.
Test [1] concerns Human alphaherpesvirus 1. Description: Effective dose required for antiviral activity against herpes simplex virus type-1. The format is functional. The conditions noted are these: read-out: ED50 (the source's name).
Test [2] concerns Human alphaherpesvirus 2. As to the kind of experiment: Effective dose required for antiviral activity against herpes simplex virus type-2. In kind it is functional. The conditions noted are these: read-out: ED50 (the source's name).
Test [3] deals with Human alphaherpesvirus 1. As to the kind of experiment: Antiviral activity against herpes simplex virus type-1 at concentration up to 100 ug/mL; NA means not active. The format is functional, organism-based.
The subject of test [4] is Human alphaherpesvirus 2. Description: Antiviral activity against herpes simplex virus type-2 at concentration up to 100 ug/mL; NA means not active. In kind it is functional, organism-based.

In the case of `Nc1ccn([C@@H]2S[C@@H](CO)[C@H](O)[C@H]2O)c(=O)n1`, the outcome in the test filed under Homo sapiens was inactive. The EC50 with Human alphaherpesvirus 1 [1] and in the test with Human alphaherpesvirus 2 [2] was 10 µg/mL (≈ 38.6 µM) each time.

As to `Cc1cn([C@H]2S[C@@H](CO)[C@H](O)[C@H]2O)c(=O)[nH]c1=O`, the outcome in the test with Human alphaherpesvirus 1 [3], in the test listed under Homo sapiens and with Human alphaherpesvirus 2 [4] was inactive.

Regarding `Nc1ccn([C@H]2S[C@@H](CO)[C@H](O)[C@H]2O)c(=O)n1`, the outcome in the test with Human alphaherpesvirus 1 [3], in the test filed under Homo sapiens and with Human alphaherpesvirus 2 [4] was inactive.

As to `Cc1cn([C@@H]2S[C@@H](CO)[C@H](O)[C@H]2O)c(=O)[nH]c1=O`, the result in the test with Human alphaherpesvirus 1 [3], in the test filed under Homo sapiens and with Human alphaherpesvirus 2 [4] was inactive.
